{"source": "patent US20080319042A1", "about": "“Compositions and methods for treatment of liver disease” (priority 2007, published 2008)", "key": {"HBeAg": {"tested_on": "HBeAg", "experiment": "Anti-HBSAg Assay (Procedure B), HBeAg", "type": "cell-based, hepatitis B virus"}, "HBV DNA": {"tested_on": "HBV DNA", "experiment": "Anti-HBV DNA Assay", "type": "cell-based, hepatitis B virus", "settings": "for HBV DNA copies/ml: replicates, listed as HP-S4"}, "HCV/HIV pseudovirions": {"tested_on": "HCV/HIV pseudovirions", "experiment": "microbe, parasite or virus in culture", "type": "cell-based, hepatitis C virus", "settings": "100 μg/mL; FIG. 1"}, "HBsAg": {"tested_on": "HBsAg", "experiment": "Anti-HBSAg Assay (Procedure B), HBsAg", "type": "cell-based, hepatitis B virus", "experimental": "The HBV-producing human hepatoblastoma cell line, Hep G2 2.2.15 is maintained in DMEM supplemented with 10% fetal bovine serum (FBS), 2 mM glutamine, 100 units/ml penicillin, 100 μg/ml streptomycin at 37° C. under 5% CO2 in air.\nSamples were dissolved in DMSO at the concentration of 20 mg/mL, then further diluted with DMEM medium to the appropriate concentration.\nHep G2 2.2.15 cells (120 μl) were seeded onto 96-well plates at a concentration of 2×10^5 cells/mL. The cells incubated for 72 h in the medium without G418, after which the test samples (120 μl) were added. Five 3-fold serial dilutions of samples were tested. PBS and 3TC (lamivudine) were included as the negative and positive controls, respectively. The treated cells were incubated at 37° C. for 9 days; with the medium with sample being changed each 3 days, after which the culture supernatant was removed for analysis of both the hepatitis B surface antigen (HBsAg) production and hepatitis B DNA expression.\nThe HBsAg released into the culture medium in the presence or absence of test material was assayed using the kit manufactured by Shanghai Siic Kehua Biotech Co., Ltd (Shanghai, China). This enzyme immunoassay is based on the capture of HBsAg on monoclonal antibody-coated plates. Four- and twelve-fold dilutions of all culture supernatants collected were assayed in triplicate wells of the kit plate. The percentage inhibition of HBsAg secretion in the presence of the compound was calculated against the negative control (PBS). The IC50 values, the dose that inhibited viruses by 50%, were calculated using non-linear regression analysis (percent survival versus concentration)."}}, "note": "Values joined by “and” are separate entries in the source; they are usually repeats but may differ in a detail not shown here. Identical values can stand only once."}
{"smiles": "OCC1=C[C@@H](O)[C@@H]2C=CO[C@@H](O)[C@H]12", "note": "[aucubin aglycone]", "values": [{"measurement": "HBeAg Ave", "setting": "HBeAg; 6.25 μg/mL", "value": 1.299}, {"measurement": "HBeAg Inhibition %", "setting": "HBeAg; 6.25 μg/mL", "value": 0, "unit": "%"}, {"measurement": "HBeAg OD1", "setting": "HBeAg; 6.25 μg/mL", "value": 1.327}, {"measurement": "HBeAg OD2", "setting": "HBeAg; 6.25 μg/mL", "value": 1.265}, {"measurement": "HBeAg OD3", "setting": "HBeAg; 6.25 μg/mL", "value": 1.304}, {"measurement": "HBeAg Ave", "setting": "HBeAg; 12.5 μg/mL", "value": 1.393}, {"measurement": "HBeAg Inhibition %", "setting": "HBeAg; 12.5 μg/mL", "value": 0, "unit": "%"}, {"measurement": "HBeAg OD1", "setting": "HBeAg; 12.5 μg/mL", "value": 1.561}, {"measurement": "HBeAg OD2", "setting": "HBeAg; 12.5 μg/mL", "value": 1.316}, {"measurement": "HBeAg OD3", "setting": "HBeAg; 12.5 μg/mL", "value": 1.303}, {"measurement": "HBeAg Ave", "setting": "HBeAg; 25 μg/mL", "value": 1.334}, {"measurement": "HBeAg Inhibition %", "setting": "HBeAg; 25 μg/mL", "value": 0, "unit": "%"}, {"measurement": "HBeAg OD1", "setting": "HBeAg; 25 μg/mL", "value": 1.375}, {"measurement": "HBeAg OD2", "setting": "HBeAg; 25 μg/mL", "value": 1.335}, {"measurement": "HBeAg OD3", "setting": "HBeAg; 25 μg/mL", "value": 1.293}, {"measurement": "HBeAg Ave", "setting": "HBeAg; 50 μg/mL", "value": 1.226}, {"measurement": "HBeAg Inhibition %", "setting": "HBeAg; 50 μg/mL", "value": 0, "unit": "%"}, {"measurement": "HBeAg OD1", "setting": "HBeAg; 50 μg/mL", "value": 1.295}, {"measurement": "HBeAg OD2", "setting": "HBeAg; 50 μg/mL", "value": 1.259}, {"measurement": "HBeAg OD3", "setting": "HBeAg; 50 μg/mL", "value": 1.123}, {"measurement": "HBeAg Ave", "setting": "HBeAg; 100 μg/mL", "value": 1.329}, {"measurement": "HBeAg Inhibition %", "setting": "HBeAg; 100 μg/mL", "value": 0, "unit": "%"}, {"measurement": "HBeAg OD1", "setting": "HBeAg; 100 μg/mL", "value": 1.162}, {"measurement": "HBeAg OD2", "setting": "HBeAg; 100 μg/mL", "value": 1.391}, {"measurement": "HBeAg OD3", "setting": "HBeAg; 100 μg/mL", "value": 1.435}, {"measurement": "HBV DNA Average", "setting": "HBV DNA; 6.25 μg/ml", "value": "1.10 × 10^6 copies/ml"}, {"measurement": "HBV DNA Inhibit", "setting": "HBV DNA; 6.25 μg/ml", "value": 5.99, "unit": "%"}, {"measurement": "HBV DNA copies/ml", "setting": "HBV DNA; 6.25 μg/ml", "value": "1.26E+06 copies/ml and 9.83E+05 copies/ml and 1.06E+06 copies/ml"}, {"measurement": "HBV DNA Average", "setting": "HBV DNA; 12.5 μg/ml", "value": "9.52 × 10^5 copies/ml"}, {"measurement": "HBV DNA Inhibit", "setting": "HBV DNA; 12.5 μg/ml", "value": 8.60, "unit": "%"}, {"measurement": "HBV DNA copies/ml", "setting": "HBV DNA; 12.5 μg/ml", "value": "1.16E+06 copies/ml and 9.17E+05 copies/ml and 7.78E+05 copies/ml"}, {"measurement": "HBV DNA Average", "setting": "HBV DNA; 25 μg/ml", "value": "1.01 × 10^6 copies/ml"}, {"measurement": "HBV DNA Inhibit", "setting": "HBV DNA; 25 μg/ml", "value": 13.70, "unit": "%"}, {"measurement": "HBV DNA copies/ml", "setting": "HBV DNA; 25 μg/ml", "value": "1.02E+06 copies/ml and 9.74E+05 copies/ml and 1.04E+06 copies/ml"}, {"measurement": "HBV DNA Average", "setting": "HBV DNA; 50 μg/ml", "value": "9.79 × 10^5 copies/ml"}, {"measurement": "HBV DNA Inhibit", "setting": "HBV DNA; 50 μg/ml", "value": 16.30, "unit": "%"}, {"measurement": "HBV DNA copies/ml", "setting": "HBV DNA; 50 μg/ml", "value": "1.05E+06 copies/ml and 9.27E+05 copies/ml and 9.59E+05 copies/ml"}, {"measurement": "HBV DNA Average", "setting": "HBV DNA; 100 μg/ml", "value": "8.43 × 10^5 copies/ml"}, {"measurement": "HBV DNA Inhibit", "setting": "HBV DNA; 100 μg/ml", "value": 27.90, "unit": "%"}, {"measurement": "HBV DNA copies/ml", "setting": "HBV DNA; 100 μg/ml", "value": "7.90E+05 copies/ml and 7.94E+05 copies/ml and 9.44E+05 copies/ml"}, {"measurement": "inhibition of HCV/HIV entry", "setting": "HCV/HIV pseudovirions", "value": "approximately 80%"}, {"measurement": "HBsAg Ave.", "setting": "HBsAg; 6.25 μg/mL", "value": 1.407}, {"measurement": "HBsAg Inhibition %", "setting": "HBsAg; 6.25 μg/mL", "value": 0, "unit": "%"}, {"measurement": "HBsAg OD1", "setting": "HBsAg; 6.25 μg/mL", "value": 1.392}, {"measurement": "HBsAg OD2", "setting": "HBsAg; 6.25 μg/mL", "value": 1.375}, {"measurement": "HBsAg OD3", "setting": "HBsAg; 6.25 μg/mL", "value": 1.454}, {"measurement": "HBsAg Ave.", "setting": "HBsAg; 12.5 μg/mL", "value": 1.323}, {"measurement": "HBsAg Inhibition %", "setting": "HBsAg; 12.5 μg/mL", "value": 4.5, "unit": "%"}, {"measurement": "HBsAg OD1", "setting": "HBsAg; 12.5 μg/mL", "value": 1.370}, {"measurement": "HBsAg OD2", "setting": "HBsAg; 12.5 μg/mL", "value": 1.372}, {"measurement": "HBsAg OD3", "setting": "HBsAg; 12.5 μg/mL", "value": 1.227}, {"measurement": "HBsAg Ave.", "setting": "HBsAg; 25 μg/mL", "value": 1.300}, {"measurement": "HBsAg Inhibition %", "setting": "HBsAg; 25 μg/mL", "value": 6.1, "unit": "%"}, {"measurement": "HBsAg OD1", "setting": "HBsAg; 25 μg/mL", "value": 1.608}, {"measurement": "HBsAg OD2", "setting": "HBsAg; 25 μg/mL", "value": 1.116}, {"measurement": "HBsAg OD3", "setting": "HBsAg; 25 μg/mL", "value": 1.175}, {"measurement": "HBsAg Ave.", "setting": "HBsAg; 50 μg/mL", "value": 0.845}, {"measurement": "HBsAg Inhibition %", "setting": "HBsAg; 50 μg/mL", "value": 37.9, "unit": "%"}, {"measurement": "HBsAg OD1", "setting": "HBsAg; 50 μg/mL", "value": 0.935}, {"measurement": "HBsAg OD2", "setting": "HBsAg; 50 μg/mL", "value": 0.926}, {"measurement": "HBsAg OD3", "setting": "HBsAg; 50 μg/mL", "value": 0.675}, {"measurement": "HBsAg Ave.", "setting": "HBsAg; 100 μg/mL", "value": 0.656}, {"measurement": "HBsAg Inhibition %", "setting": "HBsAg; 100 μg/mL", "value": 52.6, "unit": "%"}, {"measurement": "HBsAg OD1", "setting": "HBsAg; 100 μg/mL", "value": 0.667}, {"measurement": "HBsAg OD2", "setting": "HBsAg; 100 μg/mL", "value": 0.641}, {"measurement": "HBsAg OD3", "setting": "HBsAg; 100 μg/mL", "value": 0.66}]}
